Reference: ChEMBL document CHEMBL1138082, “Structural requirements for the substrates of the H+/peptide cotransporter PEPT2 determined by three-dimensional quantitative structure-activity relationship analysis” (J Med Chem, 2006)
Residues, ends and D or L forms follow the SMILES beside them.

Legend:
[1] = target: T1, Solute carrier family 15 member 2 (Rattus norvegicus, UniProt Q63424); assay: Displacement of [14C]Gly-Sar from rat PEPT2 in SKPT0193 C1.2 cells; assay type: cell-based
T1 sequence (Q63424 whole entry): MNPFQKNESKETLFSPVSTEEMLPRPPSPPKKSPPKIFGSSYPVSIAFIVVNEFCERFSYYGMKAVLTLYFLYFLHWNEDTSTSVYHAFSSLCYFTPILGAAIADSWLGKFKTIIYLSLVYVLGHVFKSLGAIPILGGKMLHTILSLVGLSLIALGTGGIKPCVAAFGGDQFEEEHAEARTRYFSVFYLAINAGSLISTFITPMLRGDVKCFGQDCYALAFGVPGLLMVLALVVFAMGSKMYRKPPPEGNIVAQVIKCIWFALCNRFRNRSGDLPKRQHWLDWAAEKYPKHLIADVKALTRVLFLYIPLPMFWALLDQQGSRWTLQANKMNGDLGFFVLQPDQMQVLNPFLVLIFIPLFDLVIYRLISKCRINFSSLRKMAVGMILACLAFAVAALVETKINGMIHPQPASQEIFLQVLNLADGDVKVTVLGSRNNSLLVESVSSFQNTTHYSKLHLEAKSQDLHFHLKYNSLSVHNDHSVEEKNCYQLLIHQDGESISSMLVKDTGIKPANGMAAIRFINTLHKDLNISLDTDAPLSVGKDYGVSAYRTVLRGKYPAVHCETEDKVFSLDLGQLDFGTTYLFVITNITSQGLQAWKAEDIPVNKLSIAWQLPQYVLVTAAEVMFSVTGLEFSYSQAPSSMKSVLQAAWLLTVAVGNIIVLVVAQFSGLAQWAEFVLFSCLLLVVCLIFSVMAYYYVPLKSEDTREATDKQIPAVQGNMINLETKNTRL

[2] = target: T2, Solute carrier family 15 member 1 (Homo sapiens, UniProt P46059); assay: Displacement of [14C]Gly-Sar from human PEPT1 in Caco-2 cells; assay type: cell-based
T2 sequence (P46059 whole entry): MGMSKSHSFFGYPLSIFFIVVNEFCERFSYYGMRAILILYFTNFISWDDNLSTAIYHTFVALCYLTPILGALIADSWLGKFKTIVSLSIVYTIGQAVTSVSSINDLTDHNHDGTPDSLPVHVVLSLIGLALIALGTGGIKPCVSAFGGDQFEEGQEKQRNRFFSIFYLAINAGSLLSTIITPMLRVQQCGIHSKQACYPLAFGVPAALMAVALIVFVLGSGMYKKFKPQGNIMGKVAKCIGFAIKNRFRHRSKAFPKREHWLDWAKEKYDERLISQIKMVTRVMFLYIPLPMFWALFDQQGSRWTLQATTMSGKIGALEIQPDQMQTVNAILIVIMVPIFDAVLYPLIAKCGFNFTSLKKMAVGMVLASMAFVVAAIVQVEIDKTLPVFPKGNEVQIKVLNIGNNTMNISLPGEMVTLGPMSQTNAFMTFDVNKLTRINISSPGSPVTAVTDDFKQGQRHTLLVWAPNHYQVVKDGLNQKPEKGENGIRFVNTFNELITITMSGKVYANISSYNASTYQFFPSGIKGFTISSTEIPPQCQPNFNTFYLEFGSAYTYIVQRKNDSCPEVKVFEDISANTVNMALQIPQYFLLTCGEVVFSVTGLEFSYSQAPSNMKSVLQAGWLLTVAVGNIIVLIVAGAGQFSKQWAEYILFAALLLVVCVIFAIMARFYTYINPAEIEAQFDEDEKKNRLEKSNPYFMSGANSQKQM

[3] = Selectivity for rat PEPT2 over human PEPT1

Row | Ki [1] [µM] | Ki [2] [µM] | log selectivity ratio [3] | SMILES
1 | 3.7 | 20 | 0.7 | C[C@H](NC(=O)[C@H](Cc1ccccc1)NC(=O)c1ccccc1)C(=O)O
2 | 1200 | 100 | – | CC(C)C[C@H](N)C(=O)N[C@@H](C)C(=O)N[C@@H](CCCNC(=N)N)C(=O)O (H-Leu-Ala-Arg-OH)
3 | – | – | -1.1 | CC(C)C[C@H](N)C(=O)N[C@@H](C)C(=O)N[C@@H](CCCN=C(N)N)C(=O)O (H-Leu-Ala-Arg-OH)
4 | 4 | – | 1.7 | C[C@H](NC(=O)[C@@H](N)Cc1c[nH]c2ccccc12)C(=O)O (H-Trp-Ala-OH)
